# From patent publication US20020037829A1, “Use of DPPIV inhibitors as diuretic and anti-hypertensive agents” (priority 2000, published 2002)
# Key:
# Type in all cases: cell-based, opossum
# DPPIV = experiment: Colorimetric DPPIV enzyme assay with glycylproline p-nitroanilide tosylate as substrate in OKP cells; conditions: 1 mM Diprotin A
# Procedure: (§1) The concentration dependence for Diprotin A inhibition of DPPIV activity was first evaluated. […] Diprotin A inhibited EIPA-sensitive Na/H exchange activity by 36.7±5.3%. To test the specificity of this inhibition, activity of another brush border transport process, Cl^−-formate exchange, measured as Cl^− gradient-stimulated, DIDS-sensitive uptake of 14C-formate was assayed.
# NHE3 = experiment: 22Na uptake assay of EIPA-sensitive Na/H exchange (NHE3) activity in OKP cells; conditions: 1 mM Diprotin A, 20 min pre-incubation in NH3/NH4+ buffer pH 7.4
# Excerpt: As an initial approach to examine the physiological role of the association of DPPIV with NHE3, Diprotin A, a specific competitive inhibitor that binds to the active site of DPPIV, affects NHE3 activity in OKP cells was studied. OKP is a line of opossum proximal tubule cells that has transport properties very similar to the native proximal tubule and is therefore commonly used as an in vitro model for the mammalian proximal tubule.
# as §1
# Cl-formate exchange = experiment: Cl- gradient-stimulated, DIDS-sensitive 14C-formate uptake (Cl-formate exchange) in OKP cells; conditions: Diprotin A
# Procedure: as §1
substance,measurement,setting,value
Ile-Pro-Ile [Diprotin A],inhibition of DPPIV activity in OKP cells,DPPIV,completely inhibited
same,inhibition of EIPA-sensitive Na/H exchange activity,NHE3,36.7±5.3%
same,effect on Cl-formate exchange activity,Cl-formate exchange,no significant effect
